“Also recorded” adds a separate entry of the source. Blank lines part the entries; values can stand above or below the compound they belong to.
Legend:
[1] = tested on: human adipocytes; assay: Lipolysis assay (agonist-stimulated glycerol release); type: cell-based; conditions: agonist exposure 4.5 hours, white and NRBC-treated adipocytes
Experimental: Thermogenesis is fueled by lipolysis, so we determined whether agonist-stimulated glycerol release, a measure of lipolysis, reflected the increases in receptors and lipolysis machinery in NRBC-treated adipocytes. First, adipocyte cultures from four donors who had obesity were treated with cell medium (untreated control cells) or NRBC for seven days. On the day of the acute lipolysis assay, cells were exposed to the individual receptor agonists for […] in buffer and glycerol released into the cell supernatant was measured. Non-hydrolyzable 8-cpt-cAMP, a potent activator of PKA signaling, was also evaluated in each experiment as a positive control since it bypasses individual receptors and measures the maximum capacity for lipolysis (36). The βARs, PTHR, MC1R, GPER and ADORA2B are all stimulatory G-protein (Gs) coupled receptors and signal through the CAMP-PKA signal transduction mechanism. NPR1 is not a Gs-coupled receptor and signals through an alternate mechanism of guanylate cyclase-cGMP-protein kinase G (PKG).
Cells were differentiated in 96-well plates and treated with cell medium (untreated) or NRBC for seven days. On the day of the lipolysis assay, cells were exposed for 4.5 hours to buffer (KRB with 1% BSA) or receptor agonists dissolved in buffer. Agonists were used at concentrations shown to give maximum responses and were: 8-Cpt-cAMP 200 μM non-hydrolyzable PKA activator of maximum stimulated lipolysis (cAMP) (36), atrial natriuretic peptide 0.1 μM for NPR1 and NPR3(37), parathyroid hormone (amino acids 1-34) 1 μM for PTHR(38), isoproterenol 1 μM all βARs and dobutamine 1 μM for β1AR (39), estradiol 1 μM for GPER (40), growth hormone 250 ng/ml for GHR (41), adrenocorticotropin hormone 1 μM for MC1R (42), bile acid chenodeoxycholic acid 30 μM for TGR5(43), adenosine 1 μM for ADORA1 and ADORA2B (44), and menthol 100 μM for TRPM8(45). Supernatants were removed for measurement of glycerol released using Glycerol Reagent A, and concentrations were determined using a standard curve. Data are from four or five experiments each with cells from different donors with BMI from 27 to 36.

[2] = molecular target: CDK5 (Homo sapiens, UniProt Q00535); conditions: cited from earlier work
Sequence of CDK5 (Q00535 whole entry, species assumed): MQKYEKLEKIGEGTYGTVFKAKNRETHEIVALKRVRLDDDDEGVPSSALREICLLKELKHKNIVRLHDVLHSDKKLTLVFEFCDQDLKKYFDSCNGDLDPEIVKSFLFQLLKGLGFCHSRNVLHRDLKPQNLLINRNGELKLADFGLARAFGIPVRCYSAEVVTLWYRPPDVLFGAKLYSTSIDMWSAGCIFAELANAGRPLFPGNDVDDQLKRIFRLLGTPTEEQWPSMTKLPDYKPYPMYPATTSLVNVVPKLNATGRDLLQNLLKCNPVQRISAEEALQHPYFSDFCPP
Sequence of CDK5 (Q15078 whole entry partner, species assumed): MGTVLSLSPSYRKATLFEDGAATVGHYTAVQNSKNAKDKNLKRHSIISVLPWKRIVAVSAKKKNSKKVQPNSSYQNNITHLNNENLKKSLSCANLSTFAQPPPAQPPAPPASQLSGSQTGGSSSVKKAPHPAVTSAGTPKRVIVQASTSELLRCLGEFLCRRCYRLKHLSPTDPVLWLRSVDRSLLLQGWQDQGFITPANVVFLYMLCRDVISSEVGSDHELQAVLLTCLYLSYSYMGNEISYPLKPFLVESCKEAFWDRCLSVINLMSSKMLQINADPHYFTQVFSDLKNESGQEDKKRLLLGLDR

[3] = tested on: human adipocytes; assay: mRNA levels (qRT-PCR) in human adipocyte cultures treated for seven days; type: cell-based; conditions: for UCP1 gene expression, carotenoid combined with NR: 2 μM carotenoid + 8 μM NR, seven days, vs NR alone; for gene expression, β-carotene added to naringenin: 2 μM β-carotene + 8 μM naringenin extract, 7 days
Source text: In adipocytes, CDK5 inhibitors reduce adipogenesis and increase genes for energy expenditure by altering PPARγ target gene selection. We measured the expression of the PPARα/γ direct target gene UCP1 after treating human adipocyte cultures with CDK5-inhibiting flavonols combined with naringenin for seven days.
Human adipose-derived stem cells from overweight and obese female donors were purchased from LaCell, LLC (New Orleans, Louisiana) or isolated from lipoaspirate waste donated post-surgery from women with obesity using methods as previously described (31). Cells were seeded, maintained until two days after becoming confluent, and differentiated into adipocytes in the presence of rosiglitazone and isobutylmethylxanthine for five days as previously described (25). […], dissolved in DMSO at 1000×, started 5 days after the differentiation period and lasted for seven days in adipocyte maintenance medium with heat inactivated serum, before RNA and protein were isolated from adipocyte cultures.
Quantitative reverse transcriptase and real-time PCR were conducted in one reaction with the gene-specific reverse PCR primer also priming the cDNA synthesis as previously described (25). Primer-probe sequences for UCP1, GLUT4, ATGL, adiponectin, PGC-1α and ribosomal RPL13A, used to adjust target gene values for total RNA in each sample, have been previously reported (25). […] Predesigned human primer and probe sets from Thermofisher Scientific are PM20D1 Hs00399438_m1; ANGPTL4 Hs00211522_m1; GDF11 Hs00195156_m1; S100B Hs00902901_m1.

[4] = tested on: human adipocytes; assay: as above; type: cell-based; conditions: for gene expression, carotenoid alone: 2 μM carotenoid individually, seven days
[5] = tested on: human adipocytes; assay: Protein levels by Western blotting in human adipocytes treated for seven days; type: cell-based; conditions: 8 μM NR or 50 nM myricetin, 7 days
Source text: Since we saw an increase in SIRT3 mRNA and myricetin upregulates SIRT3 protein in adipocytes from mice, we analyzed levels of SIRT3 protein in human adipocytes treated for seven days with the same concentrations of compounds. Protein was isolated from adipocytes and analyzed on immunoblots probed with antibodies that specifically bind human SIRT3 or human β-actin. […] However, adding myr to NR+BC boosted SIRT3 protein by 37%.
Human adipose-derived stem cells from overweight and obese female donors were purchased from LaCell, LLC (New Orleans, Louisiana) or isolated from lipoaspirate waste donated post-surgery from women with obesity using methods as previously described (31). Cells were seeded, maintained until two days after becoming confluent, and differentiated into adipocytes in the presence of rosiglitazone and isobutylmethylxanthine for five days as previously described (25). Treatments of adipocytes with 8 μM NR and 2 μM carotenoid, dissolved in DMSO at 1000×, started 5 days after the differentiation period and lasted for seven days in adipocyte maintenance medium with heat inactivated serum, before RNA and protein were isolated from adipocyte cultures.
Whole cell protein was isolated from differentiated cell cultures after treatment for seven days, lysed with RIPA buffer containing protease and phosphatase inhibitors, and pushed through a 20-gauge needle four times to disrupt organelles. Fifty micrograms of total cell protein were loaded per lane and resolved in 7.5% SDS-PAGE gels, transferred to nitrocellulose membranes, and probed overnight at 4° C. with specific primary antibodies. Anti-rabbit or -mouse secondary antibodies conjugated to horseradish peroxidase were used for detection of target proteins. Image J was used to quantify protein bands on Western blots. To adjust for variations in total protein loaded in each lane, β-actin was used.

[6] = tested on: human fat cells; assay: Oxygen consumption rate of human fat cells; type: cell-based
Source text: Referring to FIG. 8, cells consume oxygen while metabolizing fat for thermogenic energy expenditure, and we directly measured oxygen consumption rate.

[7] = clinical; conditions: human, in vivo, 150 mg
[8] = Case study of naringenin in an individual with obesity and diabetes; type: in vivo, human
Experimental: Next, we gave 150 mg of naringenin extract in 500 mg of orange extract three times a day by capsule to a person who was obese and had type 2 diabetes that was only treated with diet. They took the capsule three times a day for 8 weeks without going on a diet or changing their exercise habits. […] For an obesity drug to get approval for weight loss it should cause a loss of 5%, so the results were close to what one can expect for a drug. Their insulin resistance went down by 20% and their metabolic rate went up by 3 percent.
We went back to the person whom we tested at 150 mg three times a day with naringenin, and tested them with 300 mg three times a day. They maintained the loss on the lower dose of naringenin and had also lost further weight, so they were below their natural weight set point.

[9] = tested on: human adipocytes; assay: Protein levels by Western blotting in human adipocytes treated for seven days; type: cell-based
[10] = 150 mg three times a day, 8 weeks
[11] = 150 mg three times a day, eight weeks

Compound: Nc1ncnc2c1ncn2[C@@H]1O[C@H](CO)[C@@H](O)[C@H]1O [adenosine]
lipolysis stimulated by the receptor agonist itself [1]: no effect

Compound: C[C@]12CC[C@@H]3c4ccc(O)cc4CC[C@H]3[C@@H]1CC[C@@H]2O [estrogen, estradiol]
lipolysis stimulated by the receptor agonist itself [1]: small reduction in lipolysis; also recorded: neither growth hormone nor estrogen stimulated lipolysis

Compound: O=c1c(O)c(-c2ccc(O)cc2)oc2cc(O)cc(O)c12 [kaempferol, reference compound]
CDK5 kinase activity inhibition EC50 (in words) [2]: low micromolar range | EC50 ([2]; read-out: CDK5 inhibition EC50): 66 µM

Compound: CC1=C[C@H](O)CC(C)(C)[C@H]1/C=C/C(C)=C/C=C/C(C)=C/C=C/C=C(C)/C=C/C=C(C)/C=C/C1=C(C)C[C@@H](O)CC1(C)C [lutein]
UCP1 gene expression, carotenoid combined with NR [3]: synergistic; also recorded: synergistically enhanced levels of UCP1 | gene expression, carotenoid alone [4]: no effect on gene expression

Compound: CC(C)=CCC/C(C)=C/C=C/C(C)=C/C=C/C(C)=C/C=C/C=C(C)/C=C/C=C(C)/C=C/C=C(\C)CCC=C(C)C [lycopene]
UCP1 gene expression, carotenoid combined with NR [3]: did not alter NR-stimulated UCP1 levels | UCP1 gene expression, carotenoid combined with NR ([3]; listed as Lycopene): did not alter the NR response | gene expression, carotenoid alone [4]: no effect on gene expression

Cmax [7]: ~16 µM | half-life [7]: 3 h
Compound: O=C1C[C@@H](c2ccc(O)cc2)Oc2cc(O)cc(O)c21 [naringenin]
UCP1 and GLUT4 mRNA, naringenin concentration curve ([3]; naringenin 0.03 μM to 8 μM with constant 3 μM myricetin): increased gene expression in a concentration-dependent manner | adiponectin production ([3]; naringenin alone (FIG. 9)): increased production of a secreted hormone (adiponectin) | SIRT3 protein levels, single agent [5]: upregulate SIRT3 protein levels | basal and maximal energy expenditure (oxygen consumption rate) [6]: strong inducer of basal and maximal energy expenditure | body weight loss [8, 10]: 2.3% | decrease in insulin resistance [8, 10]: 20% | increase in metabolic rate [8, 10]: 3% | increase in energy expenditure [8, 11]: 3.5% | reduction of fasting insulin concentrations [8, 11]: 20% | body weight at higher dose ([8]; 300 mg three times a day, same person): only maintained their weight loss without adding further weight loss | diabetes status ([8]; after weight loss following the 150 mg dose): resolved their diabetes | UCP-1 expression ([4]; human fat cells in culture and adult adipose specimens, naringenin alone): caused an increase in Uncoupling Protein-1 (UCP-1) | PGC-1α protein levels vs untreated control ([9]; 8 μM NR, 2 μM BC, 7 days): approximately two-fold | protein levels of PPARα, PPARγ, PGC-1α and NAMPT ([9]; NR alone): did not upregulate protein levels | UCP-1 and adiponectin protein levels ([9]; naringenin 8 μM over 7 days (FIG. 10)): protein levels for UCP-1 and adiponectin increased

Compound: CC1=C(/C=C/C(C)=C/C=C/C(C)=C/C=C/C=C(C)/C=C/C=C(C)/C=C/C2=C(C)CCCC2(C)C)C(C)(C)CCC1 [β-carotene, β-Carotene]
SIRT3 mRNA expression ([3]; 2 μM BC added to NR+myr, vs NR or NR+myricetin): significantly increased SIRT3 expression | UCP1 gene expression, carotenoid combined with NR ([3]; listed as BC): synergistic; also recorded: synergistically enhanced levels of UCP1 | gene expression, β-carotene added to naringenin [3]: synergistically enhances the effects of naringenin on gene expression; also recorded: synergistically induces gene expression | gene expression, β-carotene added to naringenin ([3]; listed as beta-carotene): synergistically increases expression of genes for thermogenic energy expenditure and insulin sensitivity | gene expression, carotenoid alone [4]: no effect on gene expression

lipolysis stimulated by the receptor agonist itself [1]: no effect
Compound: adrenocorticotropin hormone (SYSMEHFRWGKPVGKKRRPVKVYPNGAEDESAEAFPLEF; Corticotropin; UniProt P01189 138-176, looked up) [ACTH, MC1R agonist used in lipolysis assay]

Compound: growth hormone: human pituitary growth hormone, GHR agonist in lipolysis assay
lipolysis stimulated by the receptor agonist itself [1]: neither growth hormone nor estrogen stimulated lipolysis

lipolysis stimulated by the receptor agonist itself [1]: highest in control white adipocytes
Compound: parathyroid hormone (1-34) [PTH]

Reference: US20250213519A1, “SYNERGY FOR INCREASING INSULIN SENSITIVITY” (Board of Supervisors of Louisiana State University and …, priority 2022, published 2025)
